Assay [1] has as its target T1, Glutamate receptor ionotropic, AMPA (Rattus norvegicus, UniProt P19490+P19491+P19492+P19493). The assay is described as follows: In vitro binding affinity towards ionotropic glutamate receptor AMPA using [3H]AMPA as radioligand in rat cortical membrane preparations. It counts as cell membranes.
Assay [2] deals with Mus musculus. The assay is described as follows: In vivo activity determined by Maximum electroshock induced seizures (MES) assay in mice after ip administration. The format is functional.
A further assay deals with Glutamate NMDA receptor. The assay is described as follows: In vitro binding affinity towards glycine modulatory site on the NMDA receptors using [3H]DCKA as radioligand in rat cortical membrane preparations. The format is cell membranes.
Assay [3] deals with Mus musculus. As to the kind of experiment: In vivo activity determined by Maximum electroshock induced seizures (MES) assay in mice after iv administration. It counts as functional.
In assay [4] the target is T1, Glutamate receptor ionotropic, AMPA. As to the kind of experiment: In vitro binding affinity towards Ionotropic glutamate receptor AMPA using [3H]AMPA as radioligand in rat cortical membrane preparations. It counts as cell membranes.
The mark [5] stands for this setting: Mus musculus, ip, read-out: ED50.

Structures are written as SMILES.

As usually defined, the IC50 is the concentration that inhibits the measured activity by half. A high value points to lower potency. In general, ED50 refers to the midpoint of the dose-response relation.

As for `Oc1nc2c(n3ccnc13)C1(CCNC1)c1ccccc1-2` (configuration not stated), the IC50 in assay [1] was found to be 200 nM; at Glutamate NMDA receptor it was 640 nM. For the same compound, the ED50 with Mus musculus [2] (setting [5]) was greater than 80 mg/kg.
For `CN1CCCC12c1ccccc1-c1nc(O)c3nccn3c12` (stereo in doubt; 3e), the IC50 in assay [1] came to 200 nM; at Glutamate NMDA receptor it was 420 nM. The results for the ED50 with Mus musculus [2] and in the assay on Mus musculus [3] were 31 mg/kg and 10 mg/kg, respectively.
As for `Oc1nc2c(n3ccnc13)C1(CCCC1)c1ccccc1-2`, the figures for the IC50 (in assay [1]; on Glutamate NMDA receptor) were 1600 nM and 1400 nM, respectively.
Consider `CCCC1(N)c2ccccc2-c2nc(O)c3nccn3c21` (configuration not stated), for which the half-inhibitory concentration (IC50) in assay [1] is 420 nM; on Glutamate NMDA receptor, 520 nM. Besides, the 50% effective dose (ED50) with Mus musculus [2] (setting [5]) turned out to be 80 mg/kg.
As for `CC(C)(C)OC(=O)N1CCCC12c1ccccc1-c1nc(O)c3nccn3c12` (configuration not stated), the IC50 was greater than 10000 nM in assay [1] and 600 nM at Glutamate NMDA receptor.
On to `CN1CCCC12c1ccccc1-c1nc(O)c3nccn3c12` (single isomer, unassigned; (-)), for which the results for the concentration for half-maximal inhibition (IC50) (in assay [1]; on Glutamate NMDA receptor) were 4900 nM and 1160 nM, respectively. The same compound returned an ED50 in the assay with Mus musculus [2] of 80 mg/kg.
Take `CN1CCCC12c1ccccc1-c1nc(O)c3nccn3c12` (stereo in doubt; (+)-3e): the IC50 in assay [1] was determined as 86 nM; at Glutamate NMDA receptor it was 172 nM. The ED50 with Mus musculus [2] came out at 17 mg/kg; with Mus musculus [3] (Mus musculus, iv, read-out: ED50) it was 7 mg/kg.
Take `CCCCC1(N)c2ccccc2-c2nc(O)c3nccn3c21` (configuration not stated): the figures for the half-inhibitory concentration (IC50) (in assay [1]; at Glutamate NMDA receptor) were 1700 nM and 300 nM, respectively.
The corresponding values for `CNC(=O)N1CCCC12c1ccccc1-c1nc(O)c3nccn3c12` (configuration not stated) are 4000 nM and 1700 nM.
With `CNC1(C)c2ccccc2-c2nc(O)c3nccn3c21` (configuration not stated), the IC50 in assay [1] was 3400 nM; on Glutamate NMDA receptor it was 2740 nM.
For the compound `O=c1[nH]c2cc(-n3ccnc3)c([N+](=O)[O-])cc2[nH]c1=O` [YM-90K], the values for the half-inhibitory concentration (IC50) (in assay [1]; at Glutamate NMDA receptor) were 350 nM and 10400 nM, respectively. For the same compound, the 50% effective dose (ED50) with Mus musculus [2] (setting [5]) is 12 mg/kg.
As for `Oc1nc2c(n3ccnc13)C1(CCCN1Cc1ccccc1)c1ccccc1-2` (configuration not stated), the values for the concentration for half-maximal inhibition (IC50) (in assay [1]; at Glutamate NMDA receptor) were 10000 nM and 1300 nM, respectively.
Consider `O=C(O)CCC(=O)N1CCCC12c1ccccc1-c1nc(O)c3nccn3c12` (configuration not stated), for which the 50% inhibitory concentration (IC50) in assay [1] was found to be 360 nM; on Glutamate NMDA receptor, 10000 nM. Also, the ED50 with Mus musculus [2] (setting [5]) was 10 mg/kg.
With `CC1(C)c2ccccc2-c2nc(O)c3nccn3c21`, the IC50 in assay [1] was 4400 nM; at Glutamate NMDA receptor, 1000 nM.
Take `CC1(N)c2ccccc2-c2nc(O)c3nccn3c21` (configuration not stated): the concentration for half-maximal inhibition (IC50) in assay [1] is 2500 nM; at Glutamate NMDA receptor, 1400 nM. Also, the 50% effective dose (ED50) in the assay on Mus musculus [2] (setting [5]) amounted to 30 mg/kg.
On to `O=C(O)[C@@H]1C[C@H]2C[C@@H](CCc3nn[nH]n3)CC[C@H]2CN1` [TEZAMPANEL ANHYDROUS], for which the IC50 in assay [1] was 600 nM; on Glutamate NMDA receptor, greater than 10000 nM. Also, the ED50 in the assay with Mus musculus [2] (setting [5]) is 4 mg/kg.
For the compound `Oc1nc2c(n3ccnc13)C1(CCCCN1)c1ccccc1-2` (configuration not stated), the IC50 was 390 nM in assay [1] and 1180 nM at Glutamate NMDA receptor. In the assay on Mus musculus [2] (setting [5]), the 50% effective dose (ED50) was 45 mg/kg.
In the case of `CCN1CCCC12c1ccccc1-c1nc(O)c3nccn3c12` (configuration not stated), the IC50 in assay [1] was determined as 620 nM; at Glutamate NMDA receptor, 530 nM. Further, the 50% effective dose (ED50) in the assay with Mus musculus [2] (setting [5]) came to 54 mg/kg.
As for `Oc1nc2c(n3ccnc13)C1(CC1)c1ccccc1-2`, the 50% inhibitory concentration (IC50) in assay [1] came out at 2300 nM; at Glutamate NMDA receptor, 600 nM.
Regarding `Oc1nc2c(n3ccnc13)C1(CCNCC1)c1ccccc1-2`, the IC50 in assay [1] was determined as 380 nM; on Glutamate NMDA receptor, 2000 nM.
The corresponding values for `CCCN1CCCC12c1ccccc1-c1nc(O)c3nccn3c12` (configuration not stated) are 4300 nM and 470 nM.
For `O=C(NCc1ccccc1)N1CCCC12c1ccccc1-c1nc(O)c3nccn3c12` (configuration not stated) the same measures were 10000 nM and 900 nM.
With `Oc1nc2c(n3ccnc13)C1(CCCN1)c1ccccc1-2` (configuration not stated), the IC50 was 250 nM in assay [4] and 280 nM on Glutamate NMDA receptor. In addition, in the assay on Mus musculus [2] (setting [5]), the ED50 amounted to 80 mg/kg.
Turning to `O=C1CCC2(N1)c1ccccc1-c1nc(O)c3nccn3c12` (configuration not stated), the results for the IC50 (in assay [1]; on Glutamate NMDA receptor) were 1500 nM and 1700 nM, respectively.
The corresponding values for `CC(=O)N1CCCC12c1ccccc1-c1nc(O)c3nccn3c12` (configuration not stated) are 610 nM and 560 nM.
For the compound `Oc1nc2c(n3ccnc13)Cc1ccccc1-2`, the IC50 is 760 nM in assay [1] and 3000 nM at Glutamate NMDA receptor. Also, the ED50 in the assay on Mus musculus [2] (setting [5]) came out at 62 mg/kg.
For `NCC(=O)N1CCCC12c1ccccc1-c1nc(O)c3nccn3c12` (configuration not stated) the same measures were 830 nM, 2800 nM and 70 mg/kg.
`O=C(Nc1ccccc1)N1CCCC12c1ccccc1-c1nc(O)c3nccn3c12` (configuration not stated): the values for the IC50 (in assay [1]; at Glutamate NMDA receptor) were 7100 nM and 130 nM, respectively.

(Values after ChEMBL document CHEMBL1132526, “Spiro-imidazo[1,2-a]indeno[1,2-e]pyrazine-4-one derivatives are mixed AMPA and NMDA glycine-site antagonists active in vivo” (Bioorg Med Chem Lett, 1999).)
